Among the test systems are 786-0 renal; SK-MEL-5 melanoma; HCT-116 colon; NCI-H226 lung; SNB-75 CNS; OVCAR-8 ovarian; UACC-257 melanoma; BT-549 breast; U251 CNS; HCC-2998 colon.
Common to all, as to experiment: inhibition of tumour cell growth, NCI panel, 48 h

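Five compound concentrations were applied to cells in 96-well plates for 48 hours; endpoints were derived by simple linear interpolation of the resulting dose-response curve. GI50 is the concentration that inhibits growth by half. The concentration for full growth arrest is given as TGI.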 Bounds are passed on as bounds.

With `CCN1CCC(CC(=O)Nc2n[nH]c3nnc(-c4cccc(F)c4F)cc23)CC1`, the GI50 with 786-0 renal is over 25 µM; with SK-MEL-5 melanoma it was over 6.37 µM; in the assay on HCT-116 colon, 24.9 µM; in the assay with NCI-H226 lung, 22.5 µM; in the assay on OVCAR-8 ovarian it was over 25 µM; with UACC-257 melanoma, over 25 µM. For the same compound, the figures for the GI50 in the assay with BT-549 breast, in the assay with U251 CNS and with HCC-2998 colon were over 25 µM, 21.2 µM and over 25 µM, respectively. In addition, the TGI in the assay with 786-0 renal, in the assay with SK-MEL-5 melanoma, in the assay with HCT-116 colon, with NCI-H226 lung, in the assay on SNB-75 CNS and in the assay with OVCAR-8 ovarian was over 25 µM each time. Also, the TGI with UACC-257 melanoma, with BT-549 breast, in the assay with U251 CNS and in the assay on HCC-2998 colon was over 25 µM throughout.
`COC1=CC(c2ccc[nH]2)=N/C1=C\c1[nH]c(C)c(C(=O)CCC(=O)Oc2ccc3c(c2)CCC2C3CC[C@]3(C)[C@@H](O)CC[C@@H]23)c1C` (some centres undefined): the GI50 in the assay with 786-0 renal was 2.04 µM; in the assay with SK-MEL-5 melanoma, 1.46 µM; in the assay on HCT-116 colon it was 1.03 µM; with NCI-H226 lung it was 4.77 µM; with SNB-75 CNS it was 4.56 µM; in the assay with OVCAR-8 ovarian, 3.94 µM. Moreover, the GI50 in the assay on UACC-257 melanoma is over 100 µM; with BT-549 breast, 3.51 µM; in the assay with U251 CNS, 2.99 µM; in the assay with HCC-2998 colon, 4.05 µM. Moreover, the TGI with 786-0 renal is 4.35 µM; in the assay with SK-MEL-5 melanoma, 2.91 µM; in the assay with HCT-116 colon, 3.57 µM; with NCI-H226 lung it was over 100 µM; with SNB-75 CNS, 58.4 µM; in the assay on OVCAR-8 ovarian, over 100 µM. Further, the TGI in the assay with UACC-257 melanoma was over 100 µM; in the assay on BT-549 breast, 61.5 µM; in the assay with U251 CNS, 28.4 µM; in the assay with HCC-2998 colon, over 100 µM.
Take `C/C(CCC(=O)O)=N/Nc1ccc([N+](=O)[O-])cc1`: the GI50 is 4.34 µM in the assay with 786-0 renal; 10.1 µM with SK-MEL-5 melanoma; 4.31 µM with HCT-116 colon; over 100 µM in the assay on NCI-H226 lung; over 100 µM in the assay on SNB-75 CNS; 42.6 µM with OVCAR-8 ovarian. The GI50 was 70.6 µM in the assay with UACC-257 melanoma, 42.3 µM with BT-549 breast, over 100 µM in the assay with U251 CNS and 5.94 µM in the assay with HCC-2998 colon. The TGI with 786-0 renal, with SK-MEL-5 melanoma, in the assay on HCT-116 colon, with NCI-H226 lung, in the assay with SNB-75 CNS and in the assay on OVCAR-8 ovarian was over 100 µM each time. For the same compound, the TGI in the assay on UACC-257 melanoma, in the assay on BT-549 breast, in the assay with U251 CNS and in the assay on HCC-2998 colon was over 100 µM each time.
As to `CC1(C)CC(=O)C=C(/C=C/Sc2c(Cl)c(Cl)nc(Cl)c2Cl)C1`, the GI50 is 3.92 µM in the assay on 786-0 renal; 11.8 µM in the assay with SK-MEL-5 melanoma; 3.85 µM in the assay on HCT-116 colon; 12.7 µM in the assay on NCI-H226 lung; 15.9 µM in the assay on SNB-75 CNS; 19.3 µM with OVCAR-8 ovarian. Besides, the GI50 in the assay on UACC-257 melanoma was 15.6 µM; with BT-549 breast, 5.87 µM; with U251 CNS it was 14.8 µM; in the assay on HCC-2998 colon it was 9.46 µM. Moreover, the TGI with 786-0 renal was determined as 15.2 µM; with SK-MEL-5 melanoma, 24.4 µM; in the assay with HCT-116 colon, 13.3 µM; with NCI-H226 lung, 29 µM; with SNB-75 CNS, 31.5 µM; with OVCAR-8 ovarian, 45 µM. For the same compound, the TGI with UACC-257 melanoma amounted to 31.8 µM; in the assay on BT-549 breast, 22.3 µM; with U251 CNS, 28.5 µM; with HCC-2998 colon, 21.3 µM.
Take `Cc1ccccc1C1=C(c2cn(C)c3ccccc23)C(=O)NC1=O`: the GI50 with 786-0 renal was over 25 µM; with SK-MEL-5 melanoma, 16 µM; in the assay on HCT-116 colon it was 7.77 µM; in the assay on NCI-H226 lung it was 11.6 µM; with SNB-75 CNS, 0.644 µM; in the assay on OVCAR-8 ovarian, over 22.5 µM. Besides, the GI50 in the assay on UACC-257 melanoma was over 25 µM; with BT-549 breast, over 21.8 µM; in the assay on U251 CNS, 13.2 µM; in the assay with HCC-2998 colon, over 25 µM. Also, the TGI with 786-0 renal, in the assay with SK-MEL-5 melanoma, with HCT-116 colon, with NCI-H226 lung, with SNB-75 CNS and in the assay with OVCAR-8 ovarian was over 25 µM in each case. For the same compound, the TGI in the assay on UACC-257 melanoma, in the assay on BT-549 breast, in the assay on U251 CNS and in the assay on HCC-2998 colon was over 25 µM each time.
Consider `COC(=O)Oc1nn(C(=O)OC)c(=O)c2ccccc12`, for which the TGI in the assay on 786-0 renal, in the assay with SK-MEL-5 melanoma, with HCT-116 colon, with NCI-H226 lung, in the assay on SNB-75 CNS and with OVCAR-8 ovarian was over 100 µM each time. In addition, the TGI in the assay on UACC-257 melanoma, in the assay with BT-549 breast, in the assay on U251 CNS and in the assay on HCC-2998 colon was over 100 µM in each case.
Take `CNC(=O)c1nn(C)c2c1C(C)(C)Cc1cnc(Nc3cccc(N4CCN(C)CC4)c3)nc1-2`: the GI50 was 0.398 µM with 786-0 renal; 0.954 µM in the assay on SK-MEL-5 melanoma; 0.176 µM with HCT-116 colon; 0.237 µM with NCI-H226 lung; 0.159 µM in the assay with SNB-75 CNS; 1.25 µM in the assay on OVCAR-8 ovarian. Also, the GI50 was 0.386 µM with UACC-257 melanoma, 2.37 µM in the assay with BT-549 breast, 0.291 µM in the assay with U251 CNS and 0.83 µM in the assay on HCC-2998 colon. For the same compound, the TGI in the assay with 786-0 renal was 14.1 µM; with SK-MEL-5 melanoma, 5.46 µM; with HCT-116 colon, 31.2 µM; with NCI-H226 lung, 9.96 µM; in the assay on SNB-75 CNS, 1.42 µM; in the assay on OVCAR-8 ovarian, 22.3 µM. The TGI turned out to be 7.09 µM in the assay with UACC-257 melanoma, 13.7 µM in the assay with BT-549 breast, 12.8 µM with U251 CNS and 14.9 µM in the assay on HCC-2998 colon.
In the case of `CNS(=O)(=O)OCC1OC(n2cnc3cncnc32)C(O)C1O` (centres undefined), the GI50 in the assay with 786-0 renal, with SK-MEL-5 melanoma, in the assay on HCT-116 colon, in the assay with NCI-H226 lung, in the assay with SNB-75 CNS and in the assay on OVCAR-8 ovarian was over 100 µM each time. Besides, the GI50 with UACC-257 melanoma, in the assay with BT-549 breast, with U251 CNS and in the assay with HCC-2998 colon was over 100 µM throughout. Moreover, the TGI with 786-0 renal, in the assay on SK-MEL-5 melanoma, in the assay on HCT-116 colon, in the assay with NCI-H226 lung, in the assay on SNB-75 CNS and in the assay on OVCAR-8 ovarian was over 100 µM throughout. The TGI with UACC-257 melanoma, with BT-549 breast, in the assay with U251 CNS and in the assay with HCC-2998 colon was over 100 µM in each case.

The record behind these values is PubChem BioAssay (NCI).
